According to ChEMBL document CHEMBL1955743, “Potent inhibitors of LpxC for the treatment of Gram-negative infections” (J Med Chem, 2012):
Converted amounts (≈) assume the structure as drawn. Blank lines part the entries; values can stand above or below the compound they belong to.

Key:
Matrilysin = Matrilysin (Homo sapiens, UniProt P09237); experiment: Inhibition of human MMP7
Stromelysin-2 = Stromelysin-2 (Homo sapiens, UniProt P09238); experiment: Inhibition of human MMP10
[1] = Fraction unbound in human plasma; format: ADME, cell-free
Collagenase 3 = Collagenase 3 (Homo sapiens, UniProt P45452); experiment: Inhibition of human MMP13
[2] = AUC in rat at 10 mg/kg, iv; format: ADME, organism-based; design: dose 10 mg/kg, route intravenous; conditions: plasma
Pseudomonas aeruginosa [3] = experiment: Antibacterial activity against mexAB-OprM,mexXY,MexZ-deficient Pseudomonas aeruginosa PAO280 by broth microdilution technique; format: functional
[4] = target: Matrix metalloproteinase-25 (Homo sapiens, UniProt Q9NPA2); experiment: Inhibition of human MMP25
Klebsiella aerogenes = experiment: Antibacterial activity against Enterobacter aerogenes after 16 to 20 hrs by broth microdilution method; format: functional
Neutrophil collagenase = Neutrophil collagenase (Homo sapiens, UniProt P22894); experiment: Inhibition of human MMP8
Acinetobacter baumannii = experiment: Antibacterial activity against Acinetobacter baumannii after 16 to 20 hrs by broth microdilution method; format: functional
[5] = target: Macrophage metalloelastase (Homo sapiens, UniProt P39900); experiment: Inhibition of human MMP12
Pseudomonas aeruginosa [6] = experiment: Antibacterial activity against Pseudomonas aeruginosa clinical isolates after 16 to 20 hrs by broth microdilution method; format: functional
[7] = Volume of distribution at steady state in rat at 10 mg/kg, iv; format: ADME, organism-based; design: dose 10 mg/kg, route intravenous; conditions: in vivo, read-out: Vdss
Citrobacter freundii = experiment: Antibacterial activity against Citrobacter freundii after 16 to 20 hrs by broth microdilution method; format: functional
[8] = Inhibition of PDE11
[9] = target: Matrix metalloproteinase-15 (Homo sapiens, UniProt P51511); experiment: Inhibition of human MMP15
Pseudomonas aeruginosa [10] = experiment: Antibacterial activity against penicillin-resistant,quinolone-sensitive Pseudomonas aeruginosa UC12120 clinical isolate infected in mouse assessed as log reduction in bacterial burden in spleen administered 0.5 and 4 hrs post-infection measured after 24 hrs; format: functional
[11] = Clearance in rat at 10 mg/kg, iv; format: ADME, organism-based; design: dose 10 mg/kg, route intravenous; conditions: in vivo
Pseudomonas aeruginosa [12] = experiment: Antibacterial activity against Pseudomonas aeruginosa PAO1 after 16 to 20 hrs by broth microdilution method; format: functional
[13] = Half life in rat at 10 mg/kg, iv; format: ADME, organism-based; design: dose 10 mg/kg, route intravenous; conditions: in vivo
Stromelysin-1 = Stromelysin-1 (Homo sapiens, UniProt P08254); experiment: Inhibition of human MMP3
Pseudomonas aeruginosa [14] = experiment: Antibacterial activity against penicillin-resistant,quinolone-sensitive Pseudomonas aeruginosa UC12120 clinical isolate infected in sc dosed mouse assessed as host survival administered 0.5 and 4 hrs post-infection measured after 96 hrs; format: functional; conditions: read-out: PD50
Escherichia coli = experiment: Antibacterial activity against Escherichia coli after 16 to 20 hrs by broth microdilution method; format: functional
Pseudomonas aeruginosa [15] = experiment: Antibacterial activity against Pseudomonas aeruginosa after 16 to 20 hrs by broth microdilution method; format: functional
[16] = target: Matrix metalloproteinase-9 (Homo sapiens, UniProt P14780); experiment: Inhibition of human MMP9
Pseudomonas aeruginosa [17] = experiment: Antibacterial activity against penicillin-resistant,quinolone-sensitive Pseudomonas aeruginosa UC12120 clinical isolate infected in sc dosed mouse administered 0.5 and 4 hrs post-infection measured after 24 hrs; format: functional
[18] = target: Disintegrin and metalloproteinase domain-containing protein 17 (Homo sapiens, UniProt P78536); experiment: Inhibition of human TACE
[19] = target: Matrix metalloproteinase-14 (Homo sapiens, UniProt P50281); experiment: Inhibition of human MMP14
Interstitial collagenase = Interstitial collagenase (Homo sapiens, UniProt P03956); experiment: Inhibition of human MMP1
Klebsiella pneumoniae = experiment: Antibacterial activity against Klebsiella pneumoniae after 16 to 20 hrs by broth microdilution method; format: functional
[20] = target: Matrix metalloproteinase-24 (Homo sapiens, UniProt Q9Y5R2); experiment: Inhibition of human MMP24
[21] = target: Matrix metalloproteinase-16 (Homo sapiens, UniProt P51512); experiment: Inhibition of human MMP16
[22] = target: Matrix metalloproteinase-26 (Homo sapiens, UniProt Q9NRE1); experiment: Inhibition of human MMP26
[23] = target: T1, Sodium-dependent noradrenaline transporter (Homo sapiens, UniProt P23975); experiment: Inhibition of human norepinephrine transporter
[24] = target: Matrix metalloproteinase-20 (Homo sapiens, UniProt O60882); experiment: Inhibition of human MMP20
[25] = target: T1, Sodium-dependent noradrenaline transporter; conditions: 10 uM
Staphylococcus aureus = experiment: Antibacterial activity against Staphylococcus aureus ATCC 29213 after 16 to 20 hrs by broth microdilution method; format: functional
[26] = target: T2, UDP-3-O-acyl-N-acetylglucosamine deacetylase (Pseudomonas aeruginosa (strain ATCC 15692 / PAO1 / 1C / PRS 101 / LMG12228), UniProt P47205); experiment: Inhibition of Pseudomonas aeruginosa LpxC using UDP-3-O-(R-hydroxydecanoyl)-N-acetylglucosamine incubated for 30 mins prior to substrate addition measured after 60 mins by mass spectrophotometry
T2 sequence (P47205 whole entry): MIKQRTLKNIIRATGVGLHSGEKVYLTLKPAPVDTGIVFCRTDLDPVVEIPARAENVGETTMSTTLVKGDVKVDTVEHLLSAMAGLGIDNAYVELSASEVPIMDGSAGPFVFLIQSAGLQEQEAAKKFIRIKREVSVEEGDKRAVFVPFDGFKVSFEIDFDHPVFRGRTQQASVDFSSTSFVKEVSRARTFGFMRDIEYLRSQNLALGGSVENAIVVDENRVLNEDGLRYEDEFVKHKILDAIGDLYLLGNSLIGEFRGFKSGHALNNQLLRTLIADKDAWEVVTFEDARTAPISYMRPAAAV

T1 sequence (P23975 whole entry): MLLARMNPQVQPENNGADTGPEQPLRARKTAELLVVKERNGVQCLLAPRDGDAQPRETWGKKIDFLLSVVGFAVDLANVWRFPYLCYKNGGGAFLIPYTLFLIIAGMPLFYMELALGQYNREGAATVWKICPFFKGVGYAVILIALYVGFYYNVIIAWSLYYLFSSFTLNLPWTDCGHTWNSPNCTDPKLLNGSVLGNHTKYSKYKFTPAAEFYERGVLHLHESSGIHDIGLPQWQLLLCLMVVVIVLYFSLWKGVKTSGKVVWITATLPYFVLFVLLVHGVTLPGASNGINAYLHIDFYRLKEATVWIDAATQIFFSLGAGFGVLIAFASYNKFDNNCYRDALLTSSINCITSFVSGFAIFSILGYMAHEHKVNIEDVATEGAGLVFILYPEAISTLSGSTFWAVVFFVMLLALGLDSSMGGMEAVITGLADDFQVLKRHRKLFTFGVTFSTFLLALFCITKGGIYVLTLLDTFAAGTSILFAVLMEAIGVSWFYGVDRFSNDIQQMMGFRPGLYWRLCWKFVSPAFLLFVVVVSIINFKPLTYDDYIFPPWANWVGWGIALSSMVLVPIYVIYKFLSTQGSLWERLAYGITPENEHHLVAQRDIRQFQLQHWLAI
Sequence of Matrix metalloproteinase-15 (P51511 whole entry): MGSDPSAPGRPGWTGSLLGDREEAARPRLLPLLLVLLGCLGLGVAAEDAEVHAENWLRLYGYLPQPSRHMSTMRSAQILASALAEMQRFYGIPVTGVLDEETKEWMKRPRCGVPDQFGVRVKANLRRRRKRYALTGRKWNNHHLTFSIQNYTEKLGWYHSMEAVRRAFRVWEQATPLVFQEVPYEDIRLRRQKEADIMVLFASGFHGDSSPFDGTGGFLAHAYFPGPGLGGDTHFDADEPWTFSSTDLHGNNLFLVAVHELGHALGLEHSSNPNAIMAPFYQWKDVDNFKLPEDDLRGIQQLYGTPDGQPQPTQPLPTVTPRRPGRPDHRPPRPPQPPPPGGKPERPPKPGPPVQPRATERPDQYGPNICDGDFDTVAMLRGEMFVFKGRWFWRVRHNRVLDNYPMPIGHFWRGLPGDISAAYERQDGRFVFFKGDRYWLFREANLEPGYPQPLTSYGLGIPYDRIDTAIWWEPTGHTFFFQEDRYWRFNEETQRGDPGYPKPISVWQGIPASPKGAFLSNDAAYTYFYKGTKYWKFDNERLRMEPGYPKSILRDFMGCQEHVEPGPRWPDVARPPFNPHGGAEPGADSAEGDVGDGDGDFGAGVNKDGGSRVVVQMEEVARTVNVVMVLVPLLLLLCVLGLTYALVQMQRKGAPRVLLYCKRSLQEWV
Sequence of Neutrophil collagenase (P22894 whole entry): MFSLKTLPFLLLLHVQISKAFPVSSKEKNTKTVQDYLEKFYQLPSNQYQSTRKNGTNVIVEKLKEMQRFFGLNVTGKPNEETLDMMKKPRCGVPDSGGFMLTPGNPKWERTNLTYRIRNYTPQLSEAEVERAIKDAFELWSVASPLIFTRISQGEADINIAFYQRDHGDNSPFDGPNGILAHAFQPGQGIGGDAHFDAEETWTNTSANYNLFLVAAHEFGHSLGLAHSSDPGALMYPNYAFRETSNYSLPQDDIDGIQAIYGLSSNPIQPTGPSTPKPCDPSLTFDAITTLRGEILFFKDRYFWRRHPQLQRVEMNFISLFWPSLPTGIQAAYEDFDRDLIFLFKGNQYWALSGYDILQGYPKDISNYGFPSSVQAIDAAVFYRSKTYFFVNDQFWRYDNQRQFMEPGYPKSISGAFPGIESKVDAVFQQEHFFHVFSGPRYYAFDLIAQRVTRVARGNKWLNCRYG
Sequence of Interstitial collagenase (P03956 whole entry): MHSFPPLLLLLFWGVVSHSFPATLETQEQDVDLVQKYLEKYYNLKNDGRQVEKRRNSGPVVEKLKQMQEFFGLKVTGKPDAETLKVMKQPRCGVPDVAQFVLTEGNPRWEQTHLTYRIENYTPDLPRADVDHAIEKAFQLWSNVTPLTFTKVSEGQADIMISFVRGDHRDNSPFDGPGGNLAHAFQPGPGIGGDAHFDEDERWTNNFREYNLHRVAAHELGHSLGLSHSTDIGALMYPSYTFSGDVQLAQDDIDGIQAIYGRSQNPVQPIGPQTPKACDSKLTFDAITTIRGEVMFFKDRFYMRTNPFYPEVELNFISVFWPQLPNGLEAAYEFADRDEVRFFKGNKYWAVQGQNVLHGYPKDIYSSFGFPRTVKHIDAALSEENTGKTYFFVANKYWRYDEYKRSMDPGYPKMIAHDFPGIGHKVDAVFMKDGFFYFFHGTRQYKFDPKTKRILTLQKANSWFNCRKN
Sequence of Matrix metalloproteinase-25 (Q9NPA2 whole entry): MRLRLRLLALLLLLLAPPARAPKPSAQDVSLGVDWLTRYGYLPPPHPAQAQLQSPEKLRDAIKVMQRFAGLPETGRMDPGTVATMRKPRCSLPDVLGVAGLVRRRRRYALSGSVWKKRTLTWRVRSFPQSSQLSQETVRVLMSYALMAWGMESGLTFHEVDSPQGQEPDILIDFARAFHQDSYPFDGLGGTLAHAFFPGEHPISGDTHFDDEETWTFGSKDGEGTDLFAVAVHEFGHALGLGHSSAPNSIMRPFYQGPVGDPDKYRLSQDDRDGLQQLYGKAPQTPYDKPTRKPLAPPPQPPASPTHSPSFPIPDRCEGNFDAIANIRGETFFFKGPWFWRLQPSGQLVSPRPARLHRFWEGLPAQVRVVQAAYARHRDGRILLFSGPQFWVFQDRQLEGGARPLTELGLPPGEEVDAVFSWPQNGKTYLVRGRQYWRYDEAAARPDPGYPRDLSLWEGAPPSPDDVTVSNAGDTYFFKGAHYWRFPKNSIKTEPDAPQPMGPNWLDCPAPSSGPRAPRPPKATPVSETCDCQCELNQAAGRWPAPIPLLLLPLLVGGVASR
Sequence of Macrophage metalloelastase (P39900 whole entry): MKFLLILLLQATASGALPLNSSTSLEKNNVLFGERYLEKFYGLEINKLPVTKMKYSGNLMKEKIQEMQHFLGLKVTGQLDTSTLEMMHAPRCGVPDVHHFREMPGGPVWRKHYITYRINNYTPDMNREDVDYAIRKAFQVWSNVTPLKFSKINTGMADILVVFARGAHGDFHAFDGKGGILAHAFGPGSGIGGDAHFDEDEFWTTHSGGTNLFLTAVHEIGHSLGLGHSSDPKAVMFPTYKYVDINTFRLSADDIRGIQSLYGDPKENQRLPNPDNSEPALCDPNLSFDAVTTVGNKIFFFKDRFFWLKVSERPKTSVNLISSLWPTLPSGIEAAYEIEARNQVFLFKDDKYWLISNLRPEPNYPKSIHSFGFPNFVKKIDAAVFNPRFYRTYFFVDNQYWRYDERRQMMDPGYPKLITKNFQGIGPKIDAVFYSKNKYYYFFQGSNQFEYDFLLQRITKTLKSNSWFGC
Sequence of Disintegrin and metalloproteinase domain-containing protein 17 (P78536 whole entry, the tested form may be a part): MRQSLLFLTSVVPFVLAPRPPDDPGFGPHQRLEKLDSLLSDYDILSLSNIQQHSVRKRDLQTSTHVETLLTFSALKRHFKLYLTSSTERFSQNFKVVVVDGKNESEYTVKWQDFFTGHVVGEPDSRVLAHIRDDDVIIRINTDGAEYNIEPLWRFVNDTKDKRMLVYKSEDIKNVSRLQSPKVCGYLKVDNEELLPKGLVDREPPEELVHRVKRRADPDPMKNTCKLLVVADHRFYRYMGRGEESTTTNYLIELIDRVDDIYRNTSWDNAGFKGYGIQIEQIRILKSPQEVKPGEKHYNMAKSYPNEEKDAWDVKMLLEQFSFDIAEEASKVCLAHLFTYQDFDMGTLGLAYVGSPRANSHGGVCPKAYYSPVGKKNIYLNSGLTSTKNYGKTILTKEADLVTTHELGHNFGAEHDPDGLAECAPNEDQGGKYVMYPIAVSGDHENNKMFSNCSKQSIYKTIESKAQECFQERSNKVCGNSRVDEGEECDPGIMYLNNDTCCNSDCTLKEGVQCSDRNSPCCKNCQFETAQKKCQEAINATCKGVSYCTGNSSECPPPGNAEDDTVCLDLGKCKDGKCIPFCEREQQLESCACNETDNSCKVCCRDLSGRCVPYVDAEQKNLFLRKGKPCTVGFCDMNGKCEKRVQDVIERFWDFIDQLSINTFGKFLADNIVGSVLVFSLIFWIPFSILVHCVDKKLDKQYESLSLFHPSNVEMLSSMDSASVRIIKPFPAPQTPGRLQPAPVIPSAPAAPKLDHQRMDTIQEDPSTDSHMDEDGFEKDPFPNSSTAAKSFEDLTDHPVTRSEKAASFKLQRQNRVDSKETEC
Sequence of Matrix metalloproteinase-9 (P14780 whole entry): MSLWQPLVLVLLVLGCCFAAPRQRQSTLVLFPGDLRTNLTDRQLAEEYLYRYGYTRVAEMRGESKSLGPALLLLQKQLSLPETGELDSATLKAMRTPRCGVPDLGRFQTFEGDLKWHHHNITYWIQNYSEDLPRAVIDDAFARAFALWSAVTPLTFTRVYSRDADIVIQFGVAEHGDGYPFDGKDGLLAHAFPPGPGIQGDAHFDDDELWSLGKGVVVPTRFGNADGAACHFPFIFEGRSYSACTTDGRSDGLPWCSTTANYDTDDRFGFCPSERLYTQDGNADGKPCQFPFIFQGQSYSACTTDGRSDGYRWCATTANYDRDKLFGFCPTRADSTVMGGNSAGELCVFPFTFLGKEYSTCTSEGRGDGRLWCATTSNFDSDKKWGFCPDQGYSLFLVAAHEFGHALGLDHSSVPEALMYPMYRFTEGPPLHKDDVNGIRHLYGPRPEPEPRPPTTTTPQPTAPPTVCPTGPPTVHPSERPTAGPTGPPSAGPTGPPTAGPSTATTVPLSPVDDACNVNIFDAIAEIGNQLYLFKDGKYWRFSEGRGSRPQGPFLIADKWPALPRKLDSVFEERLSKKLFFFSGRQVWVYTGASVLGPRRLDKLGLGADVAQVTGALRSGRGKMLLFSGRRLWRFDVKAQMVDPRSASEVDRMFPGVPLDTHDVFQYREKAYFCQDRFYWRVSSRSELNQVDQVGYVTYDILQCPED

SMILES: C[C@@](CCc1ccc(-c2ccccc2)cc1)(C(=O)NO)S(C)(=O)=O
Ki (Matrilysin): > 10 µM | Ki (Stromelysin-2): > 10 µM | fraction unbound [1]: 0.02 | Ki (Collagenase 3): 7.73 µM | AUC [2]: 2800 ng·h/mL | MIC (Pseudomonas aeruginosa [3]): 0.008 µg/mL (≈ 0.023 µM) | Ki [4]: > 10 µM | MIC90 (Klebsiella aerogenes): 4 µg/mL (≈ 11.5 µM) | Ki (Neutrophil collagenase): > 10 µM | MIC90 (Acinetobacter baumannii): 32 µg/mL (≈ 92.1 µM) | Ki [5]: 1.35 µM | MIC50 (Pseudomonas aeruginosa [6]): 0.5 µg/mL (≈ 1.44 µM) | MIC90 (Pseudomonas aeruginosa [6]): 2 µg/mL (≈ 5.76 µM) | Vd [7]: 2.7 L/kg | MIC90 (Citrobacter freundii): 8 µg/mL (≈ 23 µM) | IC50 [8]: 18 µM | Ki [9]: > 10 µM | FC (Pseudomonas aeruginosa [10]): 6.2 | clearance [11]: 58 mL/min/kg | MIC (Pseudomonas aeruginosa [12]): 0.125 µg/mL (≈ 0.36 µM) | half-life [13]: 3.2 h | Ki (Stromelysin-1): > 10 µM | ED50 (Pseudomonas aeruginosa [14]): 63.4 mg/kg | MIC90 (Escherichia coli): 2 µg/mL (≈ 5.76 µM) | MIC90 (Pseudomonas aeruginosa [15]): 4 µg/mL (≈ 11.5 µM) | Ki [16]: > 10 µM | ED50 (Pseudomonas aeruginosa [17]): 35 mg/kg | Ki [18]: > 10 µM | Ki [19]: > 10 µM | Ki (Interstitial collagenase): > 10 µM | MIC90 (Klebsiella pneumoniae): 16 µg/mL (≈ 46.1 µM) | Ki [20]: > 10 µM | Ki [21]: > 10 µM | Ki [22]: > 10 µM | IC50 [23]: 0.34 µM | Ki [23]: 0.25 µM | Ki [24]: > 10 µM | inhibition [25]: > 50% | MIC (Staphylococcus aureus): > 64 µg/mL

AUC [2]: 10900 ng·h/mL | Vd [7]: 0.4 L/kg | clearance [11]: 15 mL/min/kg | MIC (Pseudomonas aeruginosa [12]): > 64 µg/mL | half-life [13]: 0.7 h | IC50 [26]: > 0.0925 µM | MIC (Staphylococcus aureus): > 64 µg/mL
SMILES: C[C@@](CCc1ccc(-c2ccc(O)cc2)cc1)(C(=O)O)S(C)(=O)=O

AUC [2]: 2500 ng·h/mL | MIC90 (Klebsiella aerogenes): 16 µg/mL (≈ 44 µM) | MIC90 (Acinetobacter baumannii): > 64 µg/mL | MIC50 (Pseudomonas aeruginosa [6]): 1 µg/mL (≈ 2.75 µM) | MIC90 (Pseudomonas aeruginosa [6]): 4 µg/mL (≈ 11 µM) | Vd [7]: 2.6 L/kg | MIC90 (Citrobacter freundii): 8 µg/mL (≈ 22 µM) | clearance [11]: 65 mL/min/kg | MIC (Pseudomonas aeruginosa [12]): 0.5 µg/mL (≈ 1.38 µM) | half-life [13]: 1.4 h | IC50 [26]: 0.00368 µM | MIC90 (Escherichia coli): 4 µg/mL (≈ 11 µM) | MIC90 (Pseudomonas aeruginosa [15]): 2 µg/mL (≈ 5.5 µM) | MIC90 (Klebsiella pneumoniae): 16 µg/mL (≈ 44 µM) | MIC (Staphylococcus aureus): > 64 µg/mL
SMILES: C[C@@](CCc1ccc(-c2ccc(O)cc2)cc1)(C(=O)NO)S(C)(=O)=O

AUC [2]: 3100 ng·h/mL | MIC90 (Klebsiella aerogenes): 1 µg/mL (≈ 2.68 µM) | MIC90 (Acinetobacter baumannii): 16 µg/mL (≈ 43 µM) | Vd [7]: 1.4 L/kg | MIC90 (Citrobacter freundii): 2 µg/mL (≈ 5.37 µM) | clearance [11]: 53 mL/min/kg | MIC (Pseudomonas aeruginosa [12]): 0.125 µg/mL (≈ 0.336 µM) | half-life [13]: 0.6 h | IC50 [26]: 0.00064 µM | MIC90 (Escherichia coli): 0.5 µg/mL (≈ 1.34 µM) | MIC90 (Pseudomonas aeruginosa [15]): 1 µg/mL (≈ 2.68 µM) | MIC90 (Klebsiella pneumoniae): 2 µg/mL (≈ 5.37 µM) | MIC (Staphylococcus aureus): > 64 µg/mL
SMILES: C[C@@](CCc1ccc(-c2ccc(C#N)cc2)cc1)(C(=O)NO)S(C)(=O)=O
